Measurements as given in article PMC9131871, “Impact of Micropolymorphism Outside the Peptide Binding Groove in the Clinically Relevant Allele HLA-C*14 on T Cell Responses in HIV-1 Infection” (Journal of Virology, 2022).

test system: .221-C1402 / .221-C1403 cells pulsed with peptide; assay: ICS assay, peptide-specific bulk T cells against peptide-pulsed .221 cells; assay type: cell-based, human; settings: IFN-γ ICS, 1 μM peptide (autologous allele) or 0.01 to 10 nM (cross-recognition), triplicate assays
Description: To confirm the HLA-C*14-restriction of the T cell responses to the 6 NL4-3-derived peptides, we expanded T cells specific for these peptides by stimulating peripheral blood mononuclear cells (PBMCs) from responders with each peptide (HLA-C*14:02^+ responders for Gag AM9, Pol KM9, and Nef AL9 and HLA-C*14:03^+ responders for Gag LY9, Nef IF8, and Nef YT9). The cultured T cells were then tested for their ability to recognize the peptides presented on 721.221 cells expressing HLA-C*14:02 (.221-C1402 cells) or HLA-C*14:03 (.221-C1403 cells) and 721.221 cells by intracellular cytokine staining (ICS) assay. Both cell lines expressed similarly high levels of HLA-C*14, although the surface expression level of HLA-C*14 on the HLA-C*14:03-transfected line was higher than that on the HLA-C*14:02 line (the ratio of relative expression of HLA-C*14:03 to that of HLA-C*14:02 was approximately 1.3:1) (Fig. 4A). […] We further analyzed cross-recognition of .221-C1402 and .221-C1403 cells prepulsed with peptides at a range of different concentrations by T cells from HLA-C*14:02^+ and HLA-C*14:03^+ individuals.
FIG 4 HLA-C*14:02- and HLA-C*14:03-restricted T cell responses to 6 putative epitope peptides. (A) Histogram plots showing surface expression of HLA-C*14:02 or HLA-C*14:03 on .221-C14:02 or .221-C14:03 cells. The relative expression level of HLA-C*14:02 versus HLA-C*14:03 [(MFI of .221-C1402 stained with DT9 − MFI of .221-C1402 stained with the second antibody)/(MFI of .221-C1403 stained with DT9 − MFI of .221-C1403 stained with the second antibody)] is 1.3. (B and C) Gag LY9-, Gag AM9-, Pol KM9-, Nef YT9-, Nef IF8-, and Nef AL9-specific bulk T cell populations were expanded by stimulating responders’ PBMCs with each peptide. The ability of these peptide-specific bulk T cells to recognize peptide-pulsed .221 cells expressing HLA-C*14 molecules was then analyzed by ICS assay. (B) T cell recognition of .221 cells expressing the patient’s autologous HLA-C*14 allele and non-HLA-C*14-expressing cells pulsed with 1 μM peptide. (C) T cell recognition of HLA-C*14:02 or HLA-C*14:03-expressing cells pulsed with the indicated peptides at concentrations from 0.01 to 10 nM was analyzed by an ICS assay. The results are means and SDs from triplicate assays.
PBMCs from HIV-1-infected individuals were stimulated with 1 μM concentrations of the corresponding peptides and then cultured for 2 weeks in RPMI 1640 medium (Thermo Fisher) containing 10% FCS, 20 ng/mL of human recombinant interleukin 2 (rIL-2) (ProSpec), 1× minimal essential medium (MEM) nonessential amino acid solution (Gibco), and 1 mM sodium pyruvate solution (Gibco). Following T cell expansion, .221-C1402 cells or .221-C1403 cells prepulsed with each HIV-1 peptide or .221-C1402 cells or .221-C1403 cells infected with HIV-1 NL4-3 were added to a 96-well plate together with bulk-cultured T cells, and the cells were incubated for 4 h at 37°C with brefeldin A ([…]). The cells were then stained with Pacific blue (PB)-labeled anti-CD3 MAb (BioLegend), FITC-labeled anti-CD19 MAb (BioLegend), allophycocyanin (APC)-labeled anti-CD8 MAb (BioLegend), and a LIVE/DEAD fixable near-infrared (IR) dead-cell staining kit (Invitrogen) and subsequently fixed with 4% paraformaldehyde and incubated in permeabilization buffer (0.1% saponin–5% FBS–PBS). Thereafter, the cells were stained with phycoerythrin (PE)-labeled anti-IFN-γ MAb (BioLegend). Staining data were acquired on a FACSCanto II instrument (BD Biosciences) and analyzed using FlowJo 10.7.1 software.

Row | Sequence | recognition of peptide-pulsed .221 cells by peptide-specific bulk T cells
1 | AFHHVAREL [Nef AL9] | recognized the epitope peptide-pulsed .221 cells expressing their autologous HLA-C*14 allele
2 | AFSPEVIPM [Gag AM9] | recognized the epitope peptide-pulsed .221 cells expressing their autologous HLA-C*14 allele
3 | IYHTQGYF [Nef IF8] | recognized the epitope peptide-pulsed .221 cells expressing their autologous HLA-C*14 allele
4 | KYHSNWRAM [Pol KM9] | recognized the epitope peptide-pulsed .221 cells expressing their autologous HLA-C*14 allele
5 | LYNTIAVLY [Gag LY9] | recognized the epitope peptide-pulsed .221 cells expressing their autologous HLA-C*14 allele
6 | YFPDWQNYT [Nef YT9] | recognized the epitope peptide-pulsed .221 cells expressing their autologous HLA-C*14 allele
